Test results published in ChEMBL document CHEMBL3351485 (ACS Med Chem Lett, 2014).
pIC50: −log10 of the molar value. The source made the active and inactive calls. The rule behind the calls is not given here.

Legend:
[1] = target: T1, Sodium- and chloride-dependent GABA transporter 1 (Homo sapiens, UniProt P30531); test: Inhibition of human GAT1 transfected in CHO cells assessed as [3H]GABA uptake after 20 mins by liquid scintillation counting analysis; assay type: cell-based
Target sequence in this assay (P30531 whole entry): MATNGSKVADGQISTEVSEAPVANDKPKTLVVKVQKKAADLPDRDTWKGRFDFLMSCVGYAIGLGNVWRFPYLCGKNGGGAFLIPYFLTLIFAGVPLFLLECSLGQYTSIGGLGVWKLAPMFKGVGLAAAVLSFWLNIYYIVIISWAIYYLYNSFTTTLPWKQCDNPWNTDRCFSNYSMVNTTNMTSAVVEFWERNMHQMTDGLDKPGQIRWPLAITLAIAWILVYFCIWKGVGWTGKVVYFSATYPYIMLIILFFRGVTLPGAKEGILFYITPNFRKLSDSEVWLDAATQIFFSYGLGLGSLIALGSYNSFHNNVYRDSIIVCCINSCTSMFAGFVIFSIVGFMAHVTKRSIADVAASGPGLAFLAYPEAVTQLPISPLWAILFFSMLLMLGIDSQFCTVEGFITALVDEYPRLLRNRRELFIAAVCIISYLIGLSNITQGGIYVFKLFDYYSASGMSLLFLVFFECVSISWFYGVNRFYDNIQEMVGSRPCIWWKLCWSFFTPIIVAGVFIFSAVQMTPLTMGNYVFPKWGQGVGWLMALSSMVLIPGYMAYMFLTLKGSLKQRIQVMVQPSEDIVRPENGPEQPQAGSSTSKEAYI

[2] = target: T2, Sodium- and chloride-dependent GABA transporter 2 (Homo sapiens, UniProt Q9NSD5); test: Inhibition of human GAT2 transfected in CHO cells assessed as [3H]GABA uptake after 20 mins by liquid scintillation counting analysis; assay type: cell-based
T2 sequence (Q9NSD5 whole entry): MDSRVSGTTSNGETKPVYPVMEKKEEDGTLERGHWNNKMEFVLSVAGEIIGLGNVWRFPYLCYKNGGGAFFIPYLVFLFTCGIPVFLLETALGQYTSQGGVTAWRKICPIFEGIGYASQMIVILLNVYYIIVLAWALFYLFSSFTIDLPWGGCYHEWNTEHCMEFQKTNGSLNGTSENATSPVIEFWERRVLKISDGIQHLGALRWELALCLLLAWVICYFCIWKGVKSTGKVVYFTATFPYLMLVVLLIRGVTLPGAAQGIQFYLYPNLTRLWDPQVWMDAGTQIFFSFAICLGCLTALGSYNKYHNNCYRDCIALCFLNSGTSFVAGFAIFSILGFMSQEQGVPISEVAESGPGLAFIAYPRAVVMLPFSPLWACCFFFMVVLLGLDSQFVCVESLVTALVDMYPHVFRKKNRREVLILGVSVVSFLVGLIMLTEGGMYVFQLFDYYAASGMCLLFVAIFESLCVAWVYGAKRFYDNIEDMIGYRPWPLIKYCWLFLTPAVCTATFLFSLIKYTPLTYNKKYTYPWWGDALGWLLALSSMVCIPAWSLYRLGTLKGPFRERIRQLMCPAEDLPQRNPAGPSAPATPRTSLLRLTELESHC

[3] = target: T3, Sodium- and chloride-dependent GABA transporter 3 (Homo sapiens, UniProt P48066); test: Inhibition of human GAT3 transfected in CHO cells assessed as [3H]GABA uptake after 20 mins by liquid scintillation counting analysis; assay type: cell-based
T3 sequence (P48066 whole entry): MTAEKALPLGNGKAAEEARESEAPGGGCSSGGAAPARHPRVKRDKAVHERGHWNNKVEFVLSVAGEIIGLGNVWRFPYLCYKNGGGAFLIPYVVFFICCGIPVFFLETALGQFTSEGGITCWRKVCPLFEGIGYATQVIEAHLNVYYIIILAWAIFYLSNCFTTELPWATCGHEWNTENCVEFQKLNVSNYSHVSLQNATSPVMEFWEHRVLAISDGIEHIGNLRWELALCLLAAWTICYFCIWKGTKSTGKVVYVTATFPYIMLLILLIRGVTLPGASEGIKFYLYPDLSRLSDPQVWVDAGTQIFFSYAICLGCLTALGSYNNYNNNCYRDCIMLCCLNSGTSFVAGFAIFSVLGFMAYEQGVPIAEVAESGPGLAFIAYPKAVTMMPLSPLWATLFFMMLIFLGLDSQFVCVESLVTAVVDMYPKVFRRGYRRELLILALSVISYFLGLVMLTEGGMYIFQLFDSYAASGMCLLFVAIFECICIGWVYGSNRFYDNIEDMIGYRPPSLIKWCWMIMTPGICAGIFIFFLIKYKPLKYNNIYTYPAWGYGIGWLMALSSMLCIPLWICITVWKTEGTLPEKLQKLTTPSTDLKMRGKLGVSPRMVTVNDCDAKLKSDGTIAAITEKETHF

[4] = target: T4, Sodium- and chloride-dependent betaine transporter (Homo sapiens, UniProt P48065); test: Inhibition of human BGT1 transfected in CHO cells assessed as [3H]GABA uptake after 20 mins by liquid scintillation counting analysis; assay type: cell-based
T4 sequence (P48065 whole entry): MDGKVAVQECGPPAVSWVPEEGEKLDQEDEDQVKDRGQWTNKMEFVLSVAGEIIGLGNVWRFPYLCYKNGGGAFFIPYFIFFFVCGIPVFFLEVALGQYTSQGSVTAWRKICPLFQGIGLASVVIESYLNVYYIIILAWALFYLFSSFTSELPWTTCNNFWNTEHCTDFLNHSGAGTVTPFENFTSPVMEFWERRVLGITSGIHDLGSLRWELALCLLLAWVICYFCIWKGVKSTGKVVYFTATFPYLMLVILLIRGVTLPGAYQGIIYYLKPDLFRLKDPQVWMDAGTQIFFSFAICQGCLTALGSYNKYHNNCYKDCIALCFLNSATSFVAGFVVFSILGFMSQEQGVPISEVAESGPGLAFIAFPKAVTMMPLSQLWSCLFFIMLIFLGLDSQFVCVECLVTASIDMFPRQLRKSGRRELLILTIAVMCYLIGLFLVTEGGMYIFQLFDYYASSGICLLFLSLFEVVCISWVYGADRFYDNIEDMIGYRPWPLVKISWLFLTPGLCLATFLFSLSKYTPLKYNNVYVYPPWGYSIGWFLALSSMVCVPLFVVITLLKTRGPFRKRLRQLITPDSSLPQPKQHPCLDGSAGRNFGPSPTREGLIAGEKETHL

[5] = target: T5, Sodium- and chloride-dependent betaine transporter (Homo sapiens) (UniProt P48065); test: Inhibition of human BGT1 transfected in CHO cells assessed as [3H]GABA uptake at 100 uM after 20 mins by liquid scintillation counting analysis; assay type: cell-based
T5 sequence (whole entry): T4 sequence (P48065 whole entry)

[6] = target: T6, Sodium- and chloride-dependent GABA transporter 3 (Homo sapiens) (UniProt P48066); conditions: CHO, 100 uM
T6 sequence (whole entry): T3 sequence (P48066 whole entry)
Description: Inhibition of human GAT3 transfected in CHO cells assessed as [3H]GABA uptake at 100 uM after 20 mins by liquid scintillation counting analysis

[7] = target: T7, Sodium- and chloride-dependent GABA transporter 2 (Homo sapiens) (UniProt Q9NSD5); test: Inhibition of human GAT2 transfected in CHO cells assessed as [3H]GABA uptake at 100 uM after 20 mins by liquid scintillation counting analysis; assay type: cell-based
T7 sequence (whole entry): T2 sequence (Q9NSD5 whole entry)

[8] = target: T1, Sodium- and chloride-dependent GABA transporter 1; test: Inhibition of human GAT1 transfected in CHO cells assessed as [3H]GABA uptake at 100 uM after 20 mins by liquid scintillation counting analysis; assay type: cell-based
Target sequence in this assay (P30531 whole entry, looked up): as the sequence (P30531 whole entry) above

Row | Structure (SMILES) | pIC50 [1] | pIC50 [3] | pIC50 [4] | inhibition [5] | inhibition [6] | inhibition [7] | inhibition [8] | pIC50 [2]
1 | COc1ccc(C(OCCN2CCC[C@H](C(=O)O)C2)(c2ccc(OC)cc2)c2ccc(OC)cc2)cc1 | < 4.00 | – | – | – | – | – | – | –
2 | COc1ccccc1C1(O)CCN(CCCn2c3ccccc3c3ccccc32)CC1 | 4.94 | 5.05 | – | – | – | – | – | 5.21
3 | N[C@H]1C[C@H]1CC(=O)O | < 4.00 | 4.86 | 5.26 | Active | Active | – | – | 4.43
4 | NCCC(=O)O [BETA-ALANINE] | – | – | – | – | – | – | – | < 4.00

Second part, led by results:

Row | pIC50 [1] | pIC50 [3] | pIC50 [4] | inhibition [5] | inhibition [6] | inhibition [7] | inhibition [8] | Structure (SMILES) | pIC50 [2]
5 | – | – | – | 63.9% | inactive | inactive | inactive | N[C@@]12CC[C@@H](C(=O)O)[C@@H]1C2 | –
6 | < 4.00 | 4.12 | 6.23 | 97.6% | 48.2% | 29% | 12.2% | N[C@@]12CC[C@H](C(=O)O)[C@@H]1C2 | < 4.00
